These results are taken from ChEMBL document CHEMBL5244229, “Thiazole-containing compounds as therapeutic targets for cancer therapy” (Eur J Med Chem, 2020).

Molecules are shown by their SMILES. pIC50: −log10 of the molar value. In brackets after ≈: the same amount, converted by molar mass.

The subject of experiment [1] is Enterobacter cloacae. The experiment is described as follows: Inhibition of Enterobacter cloacae Metallo-beta-lactamase IMP-1.
In experiment [2] the test system is MCF7. Nature of the experiment: Anticancer activity against human MCF7 cells. The class given is functional, cell-based.
Experiment [3] deals with A549. The experiment is described as follows: Anticancer activity against human A549 cells. The class given is functional, cell-based.
For experiment [4], the system named is NCI-H460. The experiment is described as follows: Antitumor activity against human NCI-H460 cells. The experiment is classed as functional, cell-based.
Experiment [5] has as its system HepG2. The experiment is described as follows: Cytotoxicity against human HepG2 cells assessed as reduction in cell viability measured after 48 hrs by MTS assay. The experiment is classed as functional, cell-based. The following applies: HepG2, 48 h.
Experiment [6] deals with HepG2. The experiment is described as follows: Anticancer activity against human HepG2 cells. The class given is functional, cell-based.
The test system of experiment [7] is HepG2. Nature of the experiment: Cytotoxicity against human HepG2 cells. The class given is functional, cell-based.
Experiment [8] deals with HCT-116. The experiment is described as follows: Anticancer activity against human HCT-116 cells. The experiment is classed as functional, cell-based.
The test system of experiment [9] is PC-3. The experiment is described as follows: Anticancer activity against human PC-3 cells. The experiment is classed as functional, cell-based.
Experiment [10] deals with K562. Nature of the experiment: Anticancer activity against human K562 cells. The class given is functional, cell-based.
Experiment [11] deals with SMMC-7721. The experiment is described as follows: Cytotoxicity against human SMMC-7721 cells. The experiment is classed as functional, cell-based.
The subject of experiment [12] is MV4-11. Nature of the experiment: Anticancer activity against human MV4-11 cells. The experiment is classed as functional, cell-based.
Experiment [13] relates to MCF7. The experiment is described as follows: Antiproliferative activity against human MCF7 cells assessed as reduction in cell viability incubated for 24 hrs by Celltiter-Glo cell viability assay. The class given is functional, cell-based. As to conditions: MCF7, 24 h.
In experiment [14] the test system is HepG2. Nature of the experiment: Cytotoxicity against human HepG2 cells assessed as inhibition of cell growth incubated for 48 hrs by MTT assay. The class given is functional, cell-based. The following applies: HepG2, 48 h. For orientation: Formazan colour is commonly taken as a measure of viable cells.
A short description of experiment [15]: Antiproliferative activity against human A375P cells. The experiment is classed as functional, cell-based.
A short description of experiment [16]: Anticancer activity against human PBMC cells. The class given is functional, cell-based.
Experiment [17] deals with K562. The experiment is described as follows: Cytotoxicity against human K562 cells assessed as reduction in cell viability measured after 48 hrs by MTS assay. The experiment is classed as functional, cell-based. The following applies: K562, 48 h.
Experiment [18] relates to HeLa. The experiment is described as follows: Cytotoxicity against human HeLa cells assessed as reduction in cell viability measured after 48 hrs by MTS assay. The experiment is classed as functional, cell-based.
Experiment [19] deals with MDA-MB-435. The experiment is described as follows: Cytotoxicity against human MDA-MB-435 cells. The experiment is classed as functional, cell-based.
Experiment [20] relates to HL-60. Nature of the experiment: Cytotoxicity against human HL-60 cells. The experiment is classed as functional, cell-based.
In experiment [21] the test system is SF-295. Nature of the experiment: Cytotoxicity against human SF-295 cells. The experiment is classed as functional, cell-based.
Experiment [22] deals with MCF7. The experiment is described as follows: Cytotoxicity against human MCF7 cells. The class given is functional, cell-based.
Experiment [23] relates to MG-63. Nature of the experiment: Cytotoxicity against human MG-63 cells. The experiment is classed as functional, cell-based.
Experiment [24] concerns HeLa. The experiment is described as follows: Cytotoxicity against human HeLa cells. The experiment is classed as functional, cell-based.
Experiment [25] relates to NCI-H460. The experiment is described as follows: Cytotoxicity against human NCI-H460 cells assessed as reduction in cell viability incubated for 48 hrs by MTT assay. The class given is functional.
The subject of experiment [26] is MCF7. Nature of the experiment: Cytotoxicity against human MCF7 cells assessed as reduction in cell viability incubated for 48 hrs by MTT assay. The class given is functional.
Experiment [27] relates to NCI-H460. The experiment is described as follows: Cytotoxicity against human NCI-H460 cells. The class given is functional, cell-based.
The subject of experiment [28] is A549. Nature of the experiment: Antiproliferative activity against human A549 cells. The experiment is classed as functional, cell-based.
Experiment [29] deals with HT-29. Nature of the experiment: Cytotoxicity against human HT-29 cells. The class given is functional, cell-based.
Experiment [30] has as its system MKN-45. The experiment is described as follows: Cytotoxicity against human MKN-45 cells. The class given is functional, cell-based.
The nature of experiment [31]: Cytotoxicity against human U-87 MG cells. The experiment is classed as functional, cell-based, U-87MG ATCC.
Experiment [32] has as its system T47D. The experiment is described as follows: Cytotoxicity against human T47D cells. The class given is functional, cell-based.
Experiment [33] has as its system Jurkat. Nature of the experiment: Antiproliferative activity against human Jurkat cells assessed as reduction in cell viability incubated for 2 days by MTT assay. The experiment is classed as functional, cell-based. As to conditions: 48 h.
For experiment [34], the system named is MDA-MB-231. The experiment is described as follows: Antiproliferative activity against human MDA-MB-231 cells assessed as reduction in cell viability incubated for 2 days by MTT assay. The following applies: MDA-MB-231, 48 h. The experiment is classed as functional, cell-based.
Experiment [35] addresses Vascular endothelial growth factor receptor 2 (Homo sapiens) (UniProt P35968). Nature of the experiment: Inhibition of VEGFR2 (unknown origin) at 20 uM using 5-FAM-KKKKEEIYFFF-CONH2 as substrate incubated for 1 hr in presence of ATP by kinase glo-assay relative to control. For orientation: In Kinase-Glo more light means more ATP remaining.

Chain of Vascular endothelial growth factor receptor 2 (Homo sapiens) (P35968 whole entry): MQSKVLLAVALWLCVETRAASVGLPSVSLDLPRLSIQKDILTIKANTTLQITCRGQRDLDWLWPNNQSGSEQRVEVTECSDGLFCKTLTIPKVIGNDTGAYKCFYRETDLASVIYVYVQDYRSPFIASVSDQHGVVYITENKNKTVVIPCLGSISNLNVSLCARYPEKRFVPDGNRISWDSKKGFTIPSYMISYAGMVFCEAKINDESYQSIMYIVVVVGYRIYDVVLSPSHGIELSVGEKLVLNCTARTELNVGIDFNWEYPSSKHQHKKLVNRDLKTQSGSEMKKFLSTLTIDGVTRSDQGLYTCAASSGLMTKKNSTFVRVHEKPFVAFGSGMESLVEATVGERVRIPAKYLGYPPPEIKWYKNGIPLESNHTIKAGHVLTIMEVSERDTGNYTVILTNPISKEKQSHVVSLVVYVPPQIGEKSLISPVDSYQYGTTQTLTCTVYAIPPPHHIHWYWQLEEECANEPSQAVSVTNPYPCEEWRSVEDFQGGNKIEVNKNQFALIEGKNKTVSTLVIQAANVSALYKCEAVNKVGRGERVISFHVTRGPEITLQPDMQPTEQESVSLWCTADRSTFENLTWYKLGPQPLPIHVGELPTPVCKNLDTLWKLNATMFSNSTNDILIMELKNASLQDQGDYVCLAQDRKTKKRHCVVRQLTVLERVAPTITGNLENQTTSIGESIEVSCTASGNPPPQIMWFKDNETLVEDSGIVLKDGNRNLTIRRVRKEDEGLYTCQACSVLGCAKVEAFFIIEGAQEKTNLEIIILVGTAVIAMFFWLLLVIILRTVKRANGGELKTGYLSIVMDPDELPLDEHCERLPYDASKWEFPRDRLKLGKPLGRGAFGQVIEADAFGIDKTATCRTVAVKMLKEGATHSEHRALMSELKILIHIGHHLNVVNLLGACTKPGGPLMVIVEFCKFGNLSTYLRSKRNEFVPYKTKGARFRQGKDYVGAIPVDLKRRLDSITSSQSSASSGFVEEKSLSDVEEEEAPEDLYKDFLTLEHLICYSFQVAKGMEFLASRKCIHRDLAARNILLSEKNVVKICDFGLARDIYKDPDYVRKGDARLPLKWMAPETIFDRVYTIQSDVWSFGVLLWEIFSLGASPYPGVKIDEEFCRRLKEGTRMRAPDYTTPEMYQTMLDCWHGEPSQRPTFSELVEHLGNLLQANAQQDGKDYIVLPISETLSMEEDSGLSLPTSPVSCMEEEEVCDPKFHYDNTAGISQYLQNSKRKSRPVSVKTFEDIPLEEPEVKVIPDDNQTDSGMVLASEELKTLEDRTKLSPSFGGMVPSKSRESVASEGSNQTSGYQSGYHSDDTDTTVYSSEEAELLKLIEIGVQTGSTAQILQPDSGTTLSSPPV

Turning to `C[C@@]1(O)[C@@H](COP(=O)(O)OP(=O)(O)OC[C@H]2O[C@@H](c3nc(C(N)=O)cs3)[C@H](O)[C@@H]2O)O[C@@H](n2cnc3c(N)ncnc32)[C@@H]1O`, in experiment [1], the IC came out at 0.52 µM.

As usually defined, the pIC50 is the IC50 on a negative log10 scale, so that one unit is a factor of ten. Consider `O=C(NNc1nc(-c2ccc(Cl)cc2)cs1)N1N=C(c2ccccc2)CC1c1ccccc1` (centres undefined), for which the pIC50 in [2] and in experiment [3] was 5.30 throughout.

In experiment [4], `CCn1c(=O)/c(=C2\Sc3ccccc3N2C)s/c1=C\c1cccc[n+]1CC` gave a negative logarithm of the IC50 (pIC50) of 5.89.

In general, CC50 refers to the concentration at which the toxic effect on the cells reaches its halfway point. For `COc1cccc2c1C(=O)c1c(O)c3c(c(O)c1C2=O)C[C@@](O)(C(=O)CO)C[C@@H]3O[C@H]1C[C@H](N)[C@H](O)[C@H](C)O1` [DOXORUBICIN], the pIC50 in experiment [5] is 6.14; in [6] it was 4.94; in experiment [8], 6.74; in experiment [9], 6.04; in experiment [10], 5.64; in [11], 6.64. In [7], this compound had a half-maximal cytotoxic concentration (CC50) of 0.2 µM.

The term IC50 denotes the point on the concentration scale where inhibition reaches its midpoint. With `O=S(=O)(Nc1ccc(-c2csc(N/N=C/c3ccc(N(CCCl)CCCl)cc3)n2)cc1)c1ccc(C(F)(F)F)cc1`, in experiment [12], the pIC50 is 5.66. Moreover, the results for the 50% inhibitory concentration (IC50) in experiment [8] and in [13] were 3.02 µg/mL and 3.02 µg/mL (≈ 4.7 µM), respectively.

`O=C(NNc1nc(-c2ccc3ccccc3c2)cs1)N1N=C(c2ccccc2)CC1c1ccc(Cl)cc1` (centres undefined): the negative-log IC50 (pIC50) in experiment [2] and in experiment [3] was 5.30 throughout.

For `CNC(=O)c1cc(Oc2ccc(NC(=O)Nc3ccc(Cl)c(C(F)(F)F)c3)cc2)ccn1` [SORAFENIB], the pIC50 in experiment [14] was 5.28; in experiment [15], 5.25.

In experiment [15], `O=S1(=O)NCCN1CCNc1nccc(-c2c(-c3ccc(F)cc3)nc3sccn23)n1` gave a negative logarithm of the IC50 (pIC50) of 5.72.

The compound `C/C(=N\Nc1nc(-c2ccc(Cl)cc2)cs1)c1ccccn1` had a pIC50 in experiment [16] below 4.52.

In the case of `Clc1cccc(Nc2c3ccccc3nc3sc(NCCN4CCCCC4)nc23)c1`, the pIC50 in experiment [17] and in [18] was 5.24 in each case.

Take `O=c1c2c[nH]c3ccc(Br)cc3c-2nn1-c1nc2ccccc2s1`: the IC50 in [19], in experiment [20] and in experiment [21] was below 5 µg/mL throughout.

For `CC(=O)Nc1nc2ccc(NC(=O)Cc3c[nH]c4ccccc34)cc2s1`, the negative-log IC50 (pIC50) in [22], in experiment [23] and in experiment [24] was 4.32 each time.

Consider `Cc1ccc2[nH]cc3c(=O)n(-c4nc5ccccc5s4)nc-3c2c1`, for which the IC50 in experiment [19], in experiment [20] and in experiment [21] was below 5 µg/mL each time.

The term GI50 denotes the concentration giving 50% growth inhibition. `CC1=CS/C(=C(/C#N)C(=O)N/N=C(\C)C2CC[C@@]3(C)[C@]4(C)CC=C5C[C@@H](O)CC[C@]5(C)[C@@]4(C)CC[C@]23C)N1c1ccccc1` (some centres undefined): the figures for the GI50 in experiment [25] and in experiment [26] were 0.01 µM and 0.02 µM, respectively.

For `CC(=O)C(C(C)=O)=C1SC=C(n2c(CC#N)nc3ccccc32)N1c1ccccc1`, the pIC50 in [27], in experiment [28], in experiment [29], in experiment [30], in [31] and in experiment [11] was 6.60 in each case.

Consider `Nc1nc(-c2ccc(Oc3ccc(Cl)cc3)cc2)cs1`, for which the negative-log IC50 (pIC50) in experiment [6] is 5.33; in experiment [8], 5.42; in [32] it was 6.04; in experiment [10], 4.91; in experiment [11], 5.79.

`Cc1ccc(Oc2ccc(-c3csc(N)n3)cc2)cc1` had a pIC50 in [32] of 6.27.

For `CCC[C@H](NS(=O)(=O)c1ccc(C)cc1)[C@]1(c2ccccc2Br)N=C(SCC)SC1=O`, the negative-log IC50 (pIC50) in experiment [33] was 4.72; in experiment [34], 4.39.

For `CCOC(=O)/C(C(C)=O)=C1/SC=C(n2c(CC#N)nc3ccccc32)N1c1ccccc1`, the negative-log IC50 (pIC50) in experiment [27], in experiment [28], in experiment [29], in experiment [30], in experiment [31] and in experiment [11] was 6.64 throughout.

What is called inhibition is the share of the control response that was lost under treatment. Regarding `O=C(Cc1csc2nc(-c3ccccc3)cn12)Nc1ccc(N2CCOCC2)nc1`, the inhibition in [35] was found to be 3.76%.
